In patent US20250383357A1, “NOVEL FLUORESCENT DYES AND POLYMERS FROM DIHYDROPHENANTHRENE DERIVATIVES” (Beckman Coulter, Inc., priority 2022, published 2025):

Assay: Fluorescence properties of DHP-cyanine dyes (excitation/absorbance and emission maxima, extinction coefficient)
Assay type: physicochemical
Details: for λem (emission wavelength) / λex (maximum excitation wavelength): Table 1
From the text: The term “absorbance maxima” or “Abs λ max” or “max λ abs” refer to wavelength of maximum absorbance measured by UV Vis spectroscopy.

SMILES	λem (emission wavelength) [nm]	λex (maximum excitation wavelength) [nm]	Abs max (purified dye) [nm]	emission max (purified dye) [nm]	extinction coefficient (purified dye) [M⁻¹ cm⁻¹]
CC1(C)Cc2c3c(cc4c2C(C)(C)C(/C=C/C=C/C=C2\N(CCCCCC(=O)O)c5ccc(S(=O)(=O)O)cc5C2(C)C)=[N+]4CCCS(=O)(=O)O)S(=O)(=O)c2cc(S(=O)(=O)O)cc1c2-3 [Compound 36, 2-((l1-oxidaneyl)dioxo-l6-sulfaneyl)-7-((1E,3E)-5-((Z)-5-((l1-oxidaneyl)dioxo-l6-sulfaneyl)-1-(5-carboxypentyl)-3,3-dimethylindolin-2-ylidene)penta-1,3-dien-1-yl)-6-(3-((l1-oxidaneyl)dioxo-l6-sulfaneyl)propyl)-8,8,10,10-tetramethyl-9,10-dihydro-8H-thieno[2′,3′,4′,5′:4,5]phenanthro[2,1-b]pyrrol-6-ium 4,4-dioxide]	683	663	663	683	
CC1(C)C(/C=C/C=C/C=C2\N(CCCS(=O)(=O)O)c3ccc(C(=O)O)cc3C2(C)C)=[N+](CCCS(=O)(=O)O)c2cc3c4c(c21)CCc1cc(S(=O)(=O)[O-])cc(c1-4)S3(=O)=O [Compound 25, (Z)-2-((2E,4E)-5-(2-((l1-oxidaneyl)dioxo-l6-sulfaneyl)-6-(3-((l1-oxidaneyl)dioxo-l6-sulfaneyl)propyl)-8,8-dimethyl-4,4-dioxido-9,10-dihydro-8H-6l4-thieno[2′,3′,4′,5′:4,5]phenanthro[2,1-b]pyrrol-7-yl)penta-2,4-dien-1-ylidene)-1-(3-((l1-oxidaneyl)dioxo-l6-sulfaneyl)propyl)-3,3-dimethylindoline-5-carboxylic Acid]	686	666	666	686	150450
